Results reported in patent publication US5827849A, “Cyclic dericatives, pharmaceutical compositions containing these compounds and processes for preparing them” (Karl Thomae GmbH, priority 1993, dated 1998).
Structures can show the parent of a compound that is named as a salt.

Legend:
Human thrombocytes = assay: Inhibition of the binding of 3H-BIBU 52 to human thrombocytes (platelets); conditions: human thrombocytes in plasma; 3H-BIBU 52 5 nM; 20 minutes, ambient temperature; read-out: 3H-BIBU 52-binding test IC50
Experimental: 1. Inhibition of the binding of ^3 H-BIBU 52 to Human thrombocytes […] Case 5/1093-FL) and various concentrations of the test substance. The free and bound ligand are separated by centrifuging and quantitatively measured by scintillation counting. From the measurements obtained the inhibition of ^3 H-BIBU 52 binding caused by the test substance is determined. In order to do this, donor blood is taken from an anticubital vein and anti-coagulated with trisodium citrate (final concentration 13 mM). The blood is centrifuged for 10 minutes at 170×g and the supernatant platelet-rich plasma (PRP) is removed. The remaining blood is centrifuged vigorously once more in order to recover plasma. The PRP is diluted with autologous plasma 1:10. 750 μl are incubated for 20 minutes at ambient temperature with 50 μl of physiological saline solution, 100 μl of test substance solution, 50 μl of ^14 C-sucrose (3700 Bq) and 50 μl of ^3 H-BIBU 52 (final concentration: 5 nM). In order to measure the non specific binding, 5 μl of BIBU 52 (final concentration 30 μM) are used instead of the test substance. […] The pellet is dissolved in 500 μl of 0.2N NaOH, 450 μl are mixed with 2 ml of scintallator and 25 μl of 5N HCl, and measured. The residual plasma remaining in the pellet is determined from the ^14 C-content, and the bound ligand is determined from the ^3 H-measurement. After substracting the non specific binding, the pellet activity is plotted against the concentration of the test substance and the concentration for 50% inhibition of binding is determined. A. Inhibition of the binding of ^3 H-BIBU 52 to human platelets […] The free and bound ligand is separated by centrifugation and determined quantitatively by scintillation counting. The inhibition of ^3 H-BIBU 52 binding by the test substance is determined from the measurements. For this purpose, donor blood is taken from an antecubital vein and anticoagulated with trisodium citrate (final concentration 13 mM). The blood is centrifuged at 170×g for 10 minutes, and the supernatant platelet-rich plasma (PRP) is removed. The remaining blood is thoroughly centrifuged once again to obtain plasma. The PRP is diluted 1:10 with autologous plasma. […] are incubated with […] of physiological saline, […] of test substance solution, […] of ^14 C-sucrose (3700 Bq) and 50 ml of ^3 H-BIBU 52 (final concentration: 5 nM) at room temperature for 20 minutes. To measure the nonspecific binding, 5 ml of BIBU 52 (final concentration: […]) are used in place of the test substance. […] The pellet is dissolved in 500 ml of 0.2N NaOH, and 450 ml are mixed with 2 ml of scintillator and 25 ml of 5N HCl and measured. The remaining plasma still present in the pellet is determined from the ^14 C content, and the bound ligand is determined from the ^3 H measurement. After subtraction of the nonspecific binding, the activity in the pellet is plotted against the concentration of test substance, and the concentration for 50% inhibition of binding is found.

mice = assay: Tolerance after intravenous administration in mice; format: in vivo; conditions: mice (three), 30 mg/kg
[1] = system: Thrombocyte aggregation (collagen-induced); assay: Collagen-induced platelet aggregation in platelet-rich plasma (Born and Cross method); format: cell-based; conditions: Homo sapiens, 10 min, platelet-rich plasma of healthy volunteers, 10 minutes incubation at 37° C., compounds of general formula I, read-out: Inhibition of platelet aggregation EC50
Experimental: 2. Antithrombotic activity Thrombocyte aggregation is measured using the Born and Cross method (J. Physiol. 170: 397 (1964)) in platelet-rich plasma taken from healthy volunteers. To inhibit coagulation the blood is mixed with 3.14% sodium citrate in a ratio by volume of 1:10. Collagen-induced aggregation The pattern of the decrease in optical density of the platelet suspension is photometrically measured and recorded after the addition of the aggregation-triggering substance. The rate of aggregation is determined from the angle of inclination of the density curve. The point on the curve where there is maximum light transmittance is used to calculate the optical density. The amount of collagen used is as small as possible but sufficient to produce an irreversible reaction curve. Standard commercial collagen produced by Hormonchemie of Munich is used. Before the addition of the collagen the plasma is incubated for 10 minutes with the test substance at 37° C. From the measurements obtained, an EC50 is determined graphically, indicating a 50% change in the optical density in terms of the inhibition of aggregation. B. Antithrombotic effect Platelet aggregation is measured by the method of Born and Cross (J. Physiol. 170, 397 (1964)) in platelet-rich plasma from healthy test subjects. For anticoagulation, sodium citrate 3.14% is added to the blood in the ratio 1:10 by volume. Collagen-induced aggregation The course of the decrease in optical density of the platelet suspension is measured and recorded photometrically after addition of the aggregation-inducing substance. The rate of aggregation is established from the angle of inclination of the density plot. The point on the plot at which the transmission of light is a maximum is used to calculate the optical density. The amount of collagen is chosen to be as small as possible but sufficient for the reaction plot to have an irreversible course. The collagen commercially obtainable from Hormonchemie, Munich, is used. Before the addition of collagen the plasma is in each case incubated with the substance at 37° C. for 10 minutes. An EC50 which relates to a 50% change in the optical density in the sense of inhibition of aggregation is determined graphically from the measured results.

[2] = system: collagen-induced thrombocyte aggregation; assay: Inhibition of collagen-induced thrombocyte aggregation ex vivo after oral administration; format: in vivo; conditions: Rhesus monkeys; oral administration of 1 mg/kg

Row | SMILES | IC50 (Human thrombocytes) | deaths / tolerance after intravenous administration (mice) | EC50 [1] | duration of inhibition of collagen-induced thrombocyte aggregation ex vivo [2]
1 | CN1CCc2ccc(N3CCN(c4ccc(CCC(=O)O)cc4)C3=O)cc2CC1 [8(1), 1-[4-(2-carboxyethyl)phenyl]-3-(3-methyl-2,3,4,5-tetrahydro-1H-3-benzazepin-7-yl)-imidazolidin-2-one-hydrochloride×1.5 water] | 36 nM | none of the three test animals died | 150 nM | 
2 | CN1CCc2ccc(N3CCN([C@H]4CC[C@H](CCC(=O)O)CC4)C3=O)cc2CC1.Cl [Example 19, 1-[trans-4-(2-Carboxyethyl)cyclohexyl]-3-(3-methyl-2,3,4,5-tetrahydro-1H-3-benzazepin-7-yl)-imidazolidin-2-one-hydrochloride] | 59 nM | none of the three test animals died | 230 nM | more than 8 hours
